What was measured:
Format in all cases: in vivo, human
[1] = tested on: participants with moderate to severe ET; assay: Phase 2 trial, randomized double-blind placebo-controlled part: efficacy (TETRAS mADL, ADL, mADL11, PGI-C, CGI-S)
From the text: Severity of ET in this study was defined by eligibility criteria on TETRAS-ADL, CGI-S, and TETRAS-PS items 6 and 7. This dose range finding trial is comprised of three parts. The first part was randomized, double-blinded (DB), and placebo-controlled, the second part was an optional extension that consisted of an Extension DB Lead-in Period followed by an Extension Open-label (OL) Period. Further, there was also a third part available for completers of the Day 99 visit, which third part was comprised of a blinded cross-over period (referred to as cross-over period) after re-randomization for 6 weeks, after which all completers would receive formula (I) in an open-label fashion. […] The primary objective of this trial was to evaluate the efficacy of Compound 1 compared to placebo after 56 days (end of randomized, DB, placebo-controlled part) of dosing in participants with ET with moderate to severe tremor utilizing modified ADL as the primary efficacy endpoint. Secondary and exploratory objectives include further efficacy evaluations, an evaluation of the safety and tolerability, and determination of plasma concentrations of formula (I) and its metabolites. The design of the Phase 2 trial is illustrated in FIG. 1.
Participants who continued to meet all clinical trial entry criteria on Day 1 were randomized to receive DB treatment with Compound 1 or placebo every morning (QAM) from Day 1 through Day 56. Participants were randomized to 1 of 2 fixed-dose regimens or placebo in a 1:1:1 ratio. No dosage adjustments were allowed.
On Days 14, 28, 42, and 56, participants returned to the clinic for PK sampling, dosing, efficacy, and safety assessments. Key efficacy assessments at these visits included TETRAS-PS, TETRAS ADL, CGI-S, CGI-I, and PGI C.
Fixed titration regimens were used (Table 1). Participants were not allowed to adjust the number of tablets per day.
Selected items from the TETRAS-ADL and TETRAS-PS (or TETRAS-CUL, as appropriate) were scored in a modified manner and combined to create a TETRAS modified total score. Items 1-11 in the TETRAS ADL subscale and items 6 and 7 of the TETRAS-PS were used, with scoring adjusted so that response options 0 and 1 were combined into a single response of “0=Normal.” Further, scores of 2, 3, and 4 were adjusted to 1, 2, and 3, respectively. The TETRAS modified total score were the sum of these adjusted TETRAS-ADL and TETRAS PS items, having a possible range of 0 to 42, where larger values represent increased direct tremor impact to activities of daily living. The items that are included in the TETRAS-modified total score are illustrated in FIG. 2.
The primary efficacy measure in this clinical trial was change from baseline in mADL at day 56. Ulixacaltamide effect on individual mADL items was determined by calculating the fold-change adjusted by placebo change at Day 56 in mADL for individual mADL items. The secondary efficacy measures included change in Clinical Global Impression-Severity (CGI-S) score, Patient Global Impression-Change (PGI-C) score, TETRAS-ADL total score, TETRAS-UL score, TETRAS-CUL score and TETRAS-PS score.

[2] = tested on: participants with moderate to severe ET; assay: Phase 2 trial, double-blind part: safety/tolerability
Experimental: This trial is a Phase 2 trial to evaluate the efficacy and safety/tolerability of titration of Compound 1 to 60 mg or 100 mg compared to placebo in participants with moderate to severe ET. Severity of ET in this study was defined by eligibility criteria on TETRAS-ADL, CGI-S, and TETRAS-PS items 6 and 7. This dose range finding trial is comprised of three parts. The first part was randomized, double-blinded (DB), and placebo-controlled, the second part was an optional extension that consisted of an Extension DB Lead-in Period followed by an Extension Open-label (OL) Period. Further, there was also a third part available for completers of the Day 99 visit, which third part was comprised of a blinded cross-over period (referred to as cross-over period) after re-randomization for 6 weeks, after which all completers would receive formula (I) in an open-label fashion. In part one of the trial, eligible participants were randomized to 1 of 2 dose levels of Compound 1 (60 mg or 100 mg) or to placebo. The primary objective of this trial was to evaluate the efficacy of Compound 1 compared to placebo after 56 days (end of randomized, DB, placebo-controlled part) of dosing in participants with ET with moderate to severe tremor utilizing modified ADL as the primary efficacy endpoint. Secondary and exploratory objectives include further efficacy evaluations, an evaluation of the safety and tolerability, and determination of plasma concentrations of formula (I) and its metabolites. The design of the Phase 2 trial is illustrated in FIG. 1.
Throughout the Intervention Period (Day 1 to Day 56), participants who chose to stop dosing or were required to stop dosing entered the Safety Follow-up Period. All participants were asked to return to the clinic for the Safety Follow-up Visit 14 days after their last dose of study drug except for those that chose to enroll in the optional Extension part of the trial (see below).
On Days 7, 21, 35, and 54 participants received a telephone call from site staff to ask about AEs and changes in concomitant medications.

[3] = tested on: healthy participants and patients with ET; assay: Safety across the clinical development program

CC(C)(C)NC(=O)CN1CCC(CNC(=O)c2cc(F)cc(Cl)c2)CC1 [Compound 1, N-((1-(2-(tert-butylamino)-2-oxoethyl)piperidin-4-yl)methyl)-3-chloro-5-fluorobenzamide]
mADL11 treatment effect relative to placebo ([1]; Day 14, participants without intention tremor): 1.03 points | LSM mADL11 change from baseline, treatment effect relative to placebo ([1]; Day 28): 1.44 | TETRAS PS items (dominant hand handwriting, left and right hand spirals), improvement vs placebo ([1]; Day 56): less improvement than those receiving placebo | mADL11 LSM treatment difference vs placebo ([1]; after 56 days, 95% CI −3.565, −0.066, nominal p <0.05): −1.82 | mADL and mADL11 scores vs. placebo at each scored timepoint ([1]; after day 14, FIG. 15): improvement | Magnitude of benefit on mADL11 vs placebo, 60 mg vs 100 mg groups ([1]; change from baseline versus placebo): largely similar | Modified ADL (mADL) scores in the Phase 2 trials ([1]; daily doses ranging from 20 to 120 mg for up to 56 days): reduced modified ADL (mADL) scores | mADL scores, patients showing improvement vs placebo ([1]; day 56, FIG. 9): more patients taking ulixacaltamide showed improvements | ADL score, average reduction compared to baseline ([1]; day 56, n=78): 3.6 points | ADL scored items with consistent effect relative to placebo ([1]; individual items, Day 56): 8 of 11 | Patients improved on CGI-S scale ([1]; mITT): 42% | Patients improved on PGI-C scale ([1]; mITT): 47% | mADL-scored items vs baseline in ET patients who do not have intention tremor ([1]; mITT excluding intention tremor, FIGS. 18 and 19): larger improvement | Placebo-adjusted mADL excluding PS, 60 mg vs 100 mg regimens ([1]; mITT patients without intention tremor, FIG. 20): consistent effect observed across both tested dosing regimens | mADL LS mean difference vs. placebo ([1]; mITT, Day 56, p=0.126): 1.57 | Modified ADL score, mean decrease ([1]; n=78, placebo 0.88 points): 2.69 points | Patients achieving at least a 3-point improvement in mADL11 ([1]; patients on propranolol and ulixacaltamide, 25% for propranolol and placebo): 48% | mADL excluding PS items, LS mean difference vs. placebo ([1]; post hoc, Day 56, mITT, p=0.042): 1.81 | Treated participants with at least a 2 point improvement in total score ([1]; post-hoc responder analysis, 0.5 SD threshold, mITT): greater than 50% | Treated subjects with at least a 4 point improvement in total score ([1]; post-hoc responder analysis, 1 SD threshold, mITT): roughly 40% | Response rates vs placebo for mADL and mADL excluding PS items ([1]; post-hoc responder analysis, MCID distribution method, mITT): greater response rates | Change in TETRAS-ADL, LS mean difference vs. placebo ([1]; secondary endpoint, p=0.026): 2.53 | Safety profile, 60 mg vs 100 mg groups ([2]; in vivo): no significant difference in the safety profile | Severity of the majority of TEAEs ([2]; in vivo): mild-moderate | Proportion of subjects who discontinued ([2]; placebo 11%): 17% | Tolerability ([2]; titration to 60 mg or 100 mg, 56 days): well tolerated | Deaths or SAEs considered related to study drug ([3]; human, in vivo): No deaths or serious adverse events (SAEs) | Suicide attempts or pregnancies reported ([3]; human, in vivo): no suicide attempts or pregnancies | Safety profile ([3]; modified release formulation, titration, 5 to 120 mg for up to 129 days): favorable safety profile | Tolerability ([3]; up to 129-days of daily administration, 5 to 120 mg, titration schedule): generally well tolerated

Source: US20250387382A1, “METHODS OF TREATING ESSENTIAL TREMOR” (Praxis Precision Medicines, Inc., priority 2023, published 2025)
